Tested on: ER-alpha MCF7
Experiment: ER-alpha MCF7 HCS EC50; stated as measured by in vitro cell proliferation assays of Examples 902 and 903
Format: cell-based
Details: Homo sapiens, MCF7, MCF7 cells; Table 2
Text: The CellTiter-Glo® Luminescent Cell Viability Assay is a homogeneous method to determine the number of viable cells in culture based on quantitation of the ATP present, which signals the presence of metabolically active cells. The CellTiter-Glo® Assay is designed for use with multiwell plate formats, making it ideal for automated high-throughput screening (HTS), cell proliferation and cytotoxicity assays. The homogeneous assay procedure involves adding a single reagent (CellTiter-Glo® Reagent) directly to cells cultured in serum-supplemented medium. Cell washing, removal of medium or multiple pipetting steps are not required. The Cell Titer-Glo® Luminescent Cell Viability Assay, including reagents and protocol are commercially available (Promega Corp., Madison, WI, Technical Bulletin TB288).
The assay assesses the ability of compounds to enter cells and inhibit cell proliferation. The assay principle is based on the determination of the number of viable cells present by quantitating the ATP present in a homogenous assay where addition of the Cell Titer-Glo® reagent results in cell lysis and generation of a luminescent signal through the luciferase reaction. The luminescent signal is proportional to the amount of ATP present.
Cell Culture Medium: RPMI or DMEM high glucose, 10% Fetal Bovine Serum, 2 mM L-Glutamine, P/S. Incubate O/N (overnight) at 37° C., 5% CO2.
Day 2—Add Drug to Cells, Compound Dilution, DMSO Plates (serial 1:2 for 9 points). Add 20 μl of compound at 10 mM in the 2nd column of 96 well plate. […] Add 147 μl of Media into all wells. Transfer 3 μl of DMSO+ compound from each well in the DMSO Plate to each corresponding well on Media Plate using Rapidplate® (Caliper, a Perkin-Elmer Co.). For 2 drug combination studies, transfer one drug 1.5 μl of DMSO+ compound from each well in the DMSO Plate to each corresponding well on Media Plate using Rapidplate. Then, transfer another drug 1.5 μl to the medium plate.
Drug Addition to Cells, Cell Plate (1:10 dilution): Add 6 μl of media+ compound directly to cells (54 μl of media on the cells already). Incubate 3 days at 37° C., 5% CO2 in an incubator that will not be opened often.
Day 5—Develop Plates, Thaw Cell Titer Glo Buffer at room temperature: Remove Cell Plates from 37° C. and equilibrate to room temperature for about 30 minutes. Add Cell Titer-Glo® Buffer to Cell Titer-Glo® Substrate (bottle to bottle). Add 30 μl Cell Titer-Glo® Reagent (Promega cat. #G7572) to each well of cells. Place on plate shaker for about 30 minutes. Read luminescence on Analyst HT Plate Reader (half second per well).
Cell viability assays and combination assays: Cells were seeded at 1000-2000 cells/well in 384-well plates for 16 h. On day two, nine serial 1:2 compound dilutions were made in DMSO in a 96 well plate. The compounds were further diluted into growth media using a Rapidplate® robot (Zymark Corp., Hopkinton, MA). The diluted compounds were then added to quadruplicate wells in 384-well cell plates and incubated at 37° C. and 5% CO2. After 4 days, relative numbers of viable cells were measured by luminescence using Cell Titer-Glo® (Promega) according to the manufacturer's instructions and read on a Wallac Multilabel Reader® (PerkinElmer, Foster City). EC50 values were calculated using Prism® 4.0 software (GraphPad, San Diego).
5 ul of each individual compound concentration and each control compound was transferred to the cell plate. Fulvestrant was added to control wells at a final concentration of 100 nM). DMSO was added to negative control wells (0.2% v/v).

SMILES | EC50
C[C@@H]1Cc2c([nH]c3ccccc23)[C@@H](c2c(F)cc(OC3CN(CC4CC4)C3)cc2F)N1CC(C)(C)F [Example 164, (1R,3R)-1-[4-[1-(cyclopropylmethyl)azetidin-3-yl]oxy-2,6-difluoro-phenyl]-2-(2-fluoro-2-methyl-propyl)-3-methyl-1,3,4,9-tetrahydropyrido[3,4-b]indole] | 0.216 nM
C[C@@H]1Cc2c([nH]c3ccccc23)[C@@H](c2c(F)cc(OC3CN(CC4CCCC4)C3)cc2F)N1CC(C)(C)F [Example 165, (1R,3R)-1-[4-[1-(cyclopentylmethyl)azetidin-3-yl]oxy-2,6-difluoro-phenyl]-2-(2-fluoro-2-methyl-propyl)-3-methyl-1,3,4,9-tetrahydropyrido[3,4-b]indole] | 2 nM
C[C@@H]1Cc2c([nH]c3ccccc23)[C@@H](c2c(F)cc(OC3CN(CCF)C3)cc2F)N1CC(C)(C)F [Example 166, (1R,3R)-1-[2,6-difluoro-4-[1-(2-fluoroethyl)azetidin-3-yl]oxy-phenyl]-2-(2-fluoro-2-methyl-propyl)-3-methyl-1,3,4,9-tetrahydropyrido[3,4-b]indole] | 0.175 nM
C#CCN1CC(Oc2cc(F)c([C@@H]3c4[nH]c5ccccc5c4C[C@@H](C)N3CC(C)(C)F)c(F)c2)C1 [Example 167, (1R,3R)-1-[2,6-difluoro-4-(1-prop-2-ynylazetidin-3-yl)oxy-phenyl]-2-(2-fluoro-2-methyl-propyl)-3-methyl-1,3,4,9-tetrahydropyrido[3,4-b]indole] | 0.083 nM
CC(C)N1CC(Oc2cc(F)c([C@@H]3c4[nH]c5ccccc5c4C[C@@H](C)N3CC(C)(C)F)c(F)c2)C1 [Example 168, (1R,3R)-1-[2,6-difluoro-4-(1-isopropylazetidin-3-yl)oxy-phenyl]-2-(2-fluoro-2-methyl-propyl)-3-methyl-1,3,4,9-tetrahydropyrido[3,4-b]indole] | 0.122 nM
CC(C)CN1CC(Oc2cc(F)c([C@@H]3c4[nH]c5ccccc5c4C[C@@H](C)N3CC(C)(C)F)c(F)c2)C1 [Example 169, (1R,3R)-1-[2,6-difluoro-4-(1-isobutylazetidin-3-yl)oxy-phenyl]-2-(2-fluoro-2-methyl-propyl)-3-methyl-1,3,4,9-tetrahydropyrido[3,4-b]indole] | 0.409 nM
C[C@@H]1Cc2c([nH]c3ccccc23)[C@@H](c2c(F)cc(OC3CN(C(=O)OC(C)(C)C)C3)cc2F)N1CC(C)(C)F [Example 170, tert-butyl 3-[3,5-difluoro-4-[(1R,3R)-2-(2-fluoro-2-methyl-propyl)-3-methyl-1,3,4,9-tetrahydropyrido[3,4-b]indol-1-yl]phenoxy]azetidine-1-carboxylate] | 1 nM
CC[C@@H]1Cc2c([nH]c3ccccc23)[C@@H](c2c(F)cc(OCCN3CC(CF)C3)cc2F)N1CC(C)(C)F [Example 171, (1R,3R)-1-(2,6-difluoro-4-(2-(3-(fluoromethyl)azetidin-1-yl)ethoxy)phenyl)-3-ethyl-2-(2-fluoro-2-methylpropyl)-2,3,4,9-tetrahydro-1H-pyrido[3,4-b]indole] | 0.471 nM
CC[C@H]1Cc2c([nH]c3ccccc23)[C@@H](c2c(F)cc(OCCN3CC(CF)C3)cc2F)N1CC(C)(C)F [Example 172, (1R,3S)-1-(2,6-difluoro-4-(2-(3-(fluoromethyl)azetidin-1-yl)ethoxy)phenyl)-3-ethyl-2-(2-fluoro-2-methylpropyl)-2,3,4,9-tetrahydro-1H-pyrido[3,4-b]indole] | 17 nM
C[C@@H]1Cc2c([nH]c3ccccc23)[C@@H](c2c(F)cc(OCCN3CC(CF)C3)cc2F)N1CC1(C)CCC1 [Example 173, (1R,3R)-1-[2,6-difluoro-4-[2-[3-(fluoromethyl)azetidin-1-yl]ethoxy]phenyl]-3-methyl-2-[(1-methylcyclobutyl)methyl]-1,3,4,9-tetrahydropyrido[3,4-b]indole] | 1 nM
C[C@@H]1Cc2c([nH]c3ccccc23)[C@@H](c2c(F)cc(OCCN3CC(CF)C3)cc2F)N1CC(F)(F)F [Example 174, (1R,3R)-1-[2,6-difluoro-4-[2-[3-(fluoromethyl)azetidin-1-yl]ethoxy]phenyl]-3-methyl-2-(2,2,2-trifluoroethyl)-1,3,4,9-tetrahydropyrido[3,4-b]indole] | 0.285 nM
C[C@@H]1Cc2c([nH]c3ccccc23)[C@H](c2c(F)cc(OCCN3CC(CF)C3)cc2F)N1CC(F)(F)F [Example 175, (1S,3R)-1-[2,6-difluoro-4-[2-[3-(fluoromethyl)azetidin-1-yl]ethoxy]phenyl]-3-methyl-2-(2,2,2-trifluoroethyl)-1,3,4,9-tetrahydropyrido[3,4-b]indole] | 14 nM
COC(CCN1CC(Oc2cc(F)c([C@@H]3c4[nH]c5ccccc5c4C[C@@H](C)N3CC(C)(C)F)c(F)c2)C1)OC [Example 176, (1R,3R)-1-[4-[1-(3,3-dimethoxypropyl)azetidin-3-yl]oxy-2,6-difluoro-phenyl]-2-(2-fluoro-2-methyl-propyl)-3-methyl-1,3,4,9-tetrahydropyrido[3,4-b]indole] | 0.031 nM
C[C@@H]1Cc2c([nH]c3ccccc23)[C@@H](c2ccc(OC3CN(CCCF)C3)cc2F)N1CC(C)(C)F [Example 177, (1R,3R)-1-[2-fluoro-4-[1-(3-fluoropropyl)azetidin-3-yl]oxy-phenyl]-2-(2-fluoro-2-methyl-propyl)-3-methyl-1,3,4,9-tetrahydropyrido[3,4-b]indole] | 0.164 nM
CC(C)(F)CN1CCc2c([nH]c3ccccc23)C1c1c(F)cc(OCCN2CC(CF)C2)cc1F (stereo not drawn) [Example 178, 1-[2,6-difluoro-4-[2-[3-(fluoromethyl)azetidin-1-yl]ethoxy]phenyl]-2-(2-fluoro-2-methyl-propyl)-1,3,4,9-tetrahydropyrido[3,4-b]indole] | 0.5 nM
C[C@@H]1Cc2c([nH]c3ccccc23)[C@H](c2ccc(OCCN3CC(CF)C3)cc2)N1S(C)(=O)=O [Example 179, (1S,3R)-1-[4-[2-[3-(fluoromethyl)azetidin-1-yl]ethoxy]phenyl]-3-methyl-2-methylsulfonyl-1,3,4,9-tetrahydropyrido[3,4-b]indole] | 13 nM
C[C@@H]1Cc2c([nH]c3ccccc23)[C@@H](c2ccc(OCCN3CC(CF)C3)cc2)N1S(C)(=O)=O [Example 180, (1R,3R)-1-(4-(2-(3-(fluoromethyl)azetidin-1-yl)ethoxy)phenyl)-3-methyl-2-(methylsulfonyl)-2,3,4,9-tetrahydro-1H-pyrido[3,4-b]indole] | 0.222 nM
CC(CO)C(=O)N1[C@H](c2c(F)cc(OCCN3CC(CF)C3)cc2F)c2[nH]c3ccccc3c2C[C@H]1C (stereo partly drawn) [Example 181, 1-((1R,3R)-1-(2,6-difluoro-4-(2-(3-(fluoromethyl)azetidin-1-yl)ethoxy)phenyl)-3-methyl-3,4-dihydro-1H-pyrido[3,4-b]indol-2(9H)-yl)-3-hydroxy-2-methylpropan-1-one] | 4 nM
C[C@@H]1Cc2c([nH]c3ccccc23)[C@@H](c2c(F)cc(OCCN3CC(CF)C3)cc2F)N1C(=O)C1CNC1 [Example 182, azetidin-3-yl-[(1R,3R)-1-[2,6-difluoro-4-[2-[3-(fluoromethyl)azetidin-1-yl]ethoxy]phenyl]-3-methyl-1,3,4,9-tetrahydropyrido[3,4-b]indol-2-yl] methanone] | > 100 nM
C[C@@H]1Cc2c([nH]c3ccccc23)[C@@H](c2c(F)cc(OCCN3CC(CF)C3)cc2F)N1C(=O)C1CC1F (stereo partly drawn) [Example 183, ((1R,3R)-1-(2,6-difluoro-4-(2-(3-(fluoromethyl)azetidin-1-yl)ethoxy)phenyl)-3-methyl-3,4-dihydro-1H-pyrido[3,4-b]indol-2(9H)-yl)(2-fluorocyclopropyl)methanone] | 4 nM
C[C@@H]1CCN([C@@H](C)COc2cc(F)c([C@@H]3c4[nH]c5ccccc5c4C[C@@H](C)N3CC(C)(C)F)c(F)c2)C1 [Example 184] | 0.494 nM
